Read-outs that look alike come from different tables or passages of the source. Residues, ends and D or L forms follow the SMILES beside them.
What was measured:
Type in all cases: biochemical
[1] = target: T1, ΔCTD_Reg1 (amino acids 1 to 546 of human Regnase-1) phosphorylation by TBK1 (Homo sapiens, UniProt Q5D1E8); test: Regnase-1 phosphorylation inhibition by compounds (AlphaScreen), TBK1, CTD-deficient Regnase-1
T1 construct: made in house; host or cells: Expi293 cells
T1 sequence (Q5D1E8 1-546): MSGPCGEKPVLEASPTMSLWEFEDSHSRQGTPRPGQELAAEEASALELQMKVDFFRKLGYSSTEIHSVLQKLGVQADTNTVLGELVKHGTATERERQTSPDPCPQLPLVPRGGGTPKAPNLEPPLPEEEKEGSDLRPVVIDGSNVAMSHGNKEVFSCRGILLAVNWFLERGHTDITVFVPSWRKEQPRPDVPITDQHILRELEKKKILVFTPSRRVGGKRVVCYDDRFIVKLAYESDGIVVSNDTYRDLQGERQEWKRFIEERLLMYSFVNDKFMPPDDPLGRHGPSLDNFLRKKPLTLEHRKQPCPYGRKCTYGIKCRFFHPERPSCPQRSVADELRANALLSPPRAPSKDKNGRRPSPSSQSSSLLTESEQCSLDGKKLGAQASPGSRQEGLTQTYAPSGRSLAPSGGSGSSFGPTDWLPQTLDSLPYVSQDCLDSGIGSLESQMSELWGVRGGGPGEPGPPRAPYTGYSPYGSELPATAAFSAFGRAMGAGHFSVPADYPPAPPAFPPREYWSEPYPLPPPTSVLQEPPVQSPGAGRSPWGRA
Text: (§1) The full-length sequence of human Regnase-1 (UniProt ID: Q5D1E8) was used to prepare a construct having a FLAG tag on the N-terminal side and a recognition sequence for biotin ligase BirA on the C-terminal side (FL_Reg1) as a target protein. The above-mentioned Regnase-1 was expressed in mammalian Expi293 cells, purified with FLAG M2 agarose, and isolated by gel filtration chromatography. When biotinylation was required, methods from nonpatent documents (BMC biotechnology, 2008,8,41; and Protein Science, 1999,8,921-929) were used.
(§2) Among the full-length human Regnase-1 sequence, the 1st to 546th amino acid sequence was prepared and made into a construct having a FLAG tag on the N-terminal side and a biotin ligase BirA recognition sequence on the C-terminal side (herein, a Regnase-1 lacking the C-terminal domain of Regnase-1 (amino acids 547 to 599 in the case of SEQ ID NO: 2) is referred to as “ΔCTD_Reg1”. “ΔCTD_Reg1” is different from “Regnase-1ΔCTD”, which is a C-terminal domain deletion variant resulting from a frameshift mutation caused by a 1 bp deletion at codon 517, as prepared in Example 13). In addition, the sequence from amino acids 301 to 599 of the full-length human Regnase-1 sequence was designated as C-terminal Regnase-1, and a construct having a FLAG tag on the N-terminal side and a recognition sequence for biotin ligase BirA on the C-terminal side was prepared (Reg1_301-599). The above-mentioned Regnase-1 was expressed in mammalian Expi293 cells, purified with FLAG M2 agarose, and isolated by gel filtration chromatography. When biotinylation was required, methods of nonpatent documents (BMC biotechnology, 2008,8,41; and Protein Science, 1999,8,921-929) were used.
(§3) Using Kinase assay buffer III (manufactured by SignalChem) supplemented with 2 mM DTT, 100 μM sodium vanadate, and 2 mM manganese chloride, kinase (IKKβ (manufactured by SignalChem) or TBK1 (manufactured by SignalChem)) and Regnase-1 were reacted in the presence of 10 μM ATP at room temperature for 2 hours to perform a phosphorylation reaction.
(§4) Phosphorylated Regnase-1 was detected by the AlphaScreen system. After each of the above-mentioned phosphorylated Regnase-1 antibodies was added and reacted at room temperature for one hour, anti-FLAG AlphaLISA Acceptor Beads (manufactured by PerkinElmer) and Protein A AlphaScreen Donor Beads (manufactured by PerkinElmer) were added, and EnVision (manufactured by PerkinElmer) was used to measure the excited luminescence. As a result, phosphorylated Regnase-1 produced by the phosphorylation reaction by kinase was specifically detected, and signals were confirmed to be enhanced in a manner dependent on Regnase-1 and kinase concentrations (FIG. 24).
(§5) After mixing 2 nM of the above-mentioned Regnase-1 and the compound, phosphorylated Regnase-1 produced by the phosphorylation reaction was detected by the AlphaScreen system. As the results, the inhibition rate was calculated from the signals obtained when adding the compound at each concentration, by defining the signal obtained with Regnase-1 alone to be 100% inhibition rate, and the signal obtained when the same amount of solvent (DMSO) is added in place of the compound as 0% inhibition rate. The 50% inhibition concentration (μM) was calculated from the obtained dose response curve (Table 11).

[2] = target: T2, Reg1_301-599 (amino acids 301-599 of human Regnase-1) phosphorylation by TBK1 (Homo sapiens, UniProt Q5D1E8); test: Regnase-1 phosphorylation inhibition by compounds (AlphaScreen), TBK1, C-terminal Regnase-1; conditions: Table 13, read-out: Phosphorylation inhibition Reg1_301-599, 50% inhibition concentration (TBK1)
T2 construct: made in house; host or cells: Expi293 cells
T2 sequence (Q5D1E8 301-599): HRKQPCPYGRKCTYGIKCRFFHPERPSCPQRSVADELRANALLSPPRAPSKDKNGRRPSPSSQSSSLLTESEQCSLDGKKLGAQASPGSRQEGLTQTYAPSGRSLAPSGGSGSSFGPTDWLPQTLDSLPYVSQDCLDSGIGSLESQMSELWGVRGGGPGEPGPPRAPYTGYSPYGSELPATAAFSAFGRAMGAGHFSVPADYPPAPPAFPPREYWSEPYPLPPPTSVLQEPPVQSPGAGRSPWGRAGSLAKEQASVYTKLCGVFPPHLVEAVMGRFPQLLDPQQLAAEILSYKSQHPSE
Procedure: as §2, §3, §4, §5

[3] = target: T3, Reg1_301-599 (amino acids 301-599 of human Regnase-1) phosphorylation by IKKβ (Homo sapiens, UniProt Q5D1E8); test: Regnase-1 phosphorylation inhibition by compounds (AlphaScreen), IKKβ, C-terminal Regnase-1; conditions: Table 14, read-out: Phosphorylation inhibition Reg1_301-599, 50% inhibition concentration (IKKβ)
T3 construct: made in house; host or cells: Expi293 cells
T3 sequence (Q5D1E8 301-599): T2 sequence (Q5D1E8 301-599)
Text: as §1, §2, §3, §4, §5

[4] = Table 11, 2 nM Regnase-1, AlphaScreen, read-out: 50% inhibition concentration, Regnase-1 phosphorylation, ΔCTD_Reg1, TBK1
[5] = Table 13, phosphorylation by TBK1, read-out: Phosphorylation inhibition ΔCTD_Reg1, 50% inhibition concentration (TBK1)

IC50 [1, 4] [µM]	IC50 [2] [µM]	Compound	other results
14.5		CC[C@H](C)[C@@H]1NC(=O)[C@H](CCCCN)NC(=O)[C@H](Cc2ccccc2)NC(=O)[C@H](Cc2c[nH]c3ccccc23)NC(=O)[C@H](CO)NC(=O)[C@H](CO)NC(=O)[C@H](CC(N)=O)NC(=O)[C@@H]2CCCN2C(=O)[C@@H](C)N(C)C(=O)C[C@@H](C(=O)N2CCCC2)NC(=O)[C@H](Cc2c[nH]c3ccccc23)NC1=O [PP6] (HELM PEPTIDE1{[C[C@H](C(=O)[*:2])N(C)[*:1]].P.N.S.S.W.F.K.I.W.D.[C1CCN([*:1])C1]}$PEPTIDE1,PEPTIDE1,1:R1-11:R3$$$V2.0)	
19.1		CC[C@H](C)[C@@H]1NC(=O)[C@H](CC(N)=O)NC(=O)[C@H](Cc2ccc(O)cc2)NC(=O)[C@H](Cc2c[nH]c3ccccc23)NC(=O)[C@H](C)NC(=O)[C@H](CC(N)=O)NC(=O)[C@H](CO)NC(=O)[C@H](Cc2c[nH]cn2)NC(=O)[C@H](C)N(C)C(=O)C[C@@H](C(=O)N2CCCC2)NC(=O)[C@H](Cc2c[nH]c3ccccc23)NC1=O [PP5] (HELM PEPTIDE1{[meA].H.S.N.A.W.Y.N.I.W.D.[C1CCN([*:1])C1]}$PEPTIDE1,PEPTIDE1,1:R1-11:R3$$$V2.0)	
	17	CC[C@H](C)[C@@H]1NC(=O)[C@H](CCCCN)NC(=O)[C@H](Cc2ccc(O)cc2)NC(=O)[C@H](Cc2c[nH]c3ccccc23)NC(=O)[C@H](CO)NC(=O)[C@H](CC(N)=O)NC(=O)[C@H](C)N(C)C(=O)C[C@@H](C(=O)N2CCCC2)NC(=O)[C@H](CC(C)C)NC(=O)CNC(=O)[C@H](Cc2c[nH]c3ccccc23)NC1=O [PP21] (HELM PEPTIDE1{[meA].N.S.W.Y.K.I.W.G.L.D.[C1CCN([*:1])C1]}$PEPTIDE1,PEPTIDE1,1:R1-11:R3$$$V2.0)	
		CC[C@H](C)[C@@H]1NC(=O)[C@H](CCCNC(=N)N)NC(=O)[C@H](Cc2ccc(O)cc2)NC(=O)[C@H](Cc2c[nH]c3ccccc23)NC(=O)[C@H](CO)NC(=O)[C@H](CC(N)=O)NC(=O)[C@H](C)N(C)C(=O)C[C@@H](C(=O)N2CCCC2)NC(=O)[C@H](CC(C)C)NC(=O)CNC(=O)[C@H](Cc2c[nH]c3ccccc23)NC1=O [PP22] (HELM PEPTIDE1{[meA].N.S.W.Y.R.I.W.G.L.D.[C1CCN([*:1])C1]}$PEPTIDE1,PEPTIDE1,1:R1-11:R3$$$V2.0)	IC50 [3]: 31 µM
17.6		CC[C@H](C)[C@@H]1NC(=O)[C@H](CC(N)=O)NC(=O)[C@H](Cc2ccc(O)cc2)NC(=O)[C@H](Cc2c[nH]c3ccccc23)NC(=O)[C@H](CO)NC(=O)[C@H](CC(N)=O)NC(=O)[C@H](C)NC(=O)[C@H](Cc2ccc(O)cc2)NC(=O)CNC(=O)[C@H](C)N(C)C(=O)C[C@@H](C(=O)N2CCCC2)NC(=O)[C@H](Cc2c[nH]c3ccccc23)NC1=O [PP2] (HELM PEPTIDE1{[meA].G.Y.A.N.S.W.Y.N.I.W.D.[C1CCN([*:1])C1]}$PEPTIDE1,PEPTIDE1,1:R1-12:R3$$$V2.0)	
	< 0.06	CC[C@H](C)[C@@H]1NC(=O)[C@H](CC(=O)O)NC(=O)[C@H](C)N(C)C(=O)C[C@@H](C(=O)N2CCCC2)NC(=O)[C@H](Cc2c[nH]c3ccccc23)NC(=O)[C@H](CC(=O)O)NC(=O)[C@H](Cc2c[nH]c3ccccc23)NC(=O)[C@H](Cc2ccc(O)cc2)NC(=O)[C@H](CC(=O)O)NC(=O)[C@H](Cc2ccccc2)NC(=O)[C@H](Cc2c[nH]c3ccccc23)NC1=O [PP17] (HELM PEPTIDE1{[meA].D.I.W.F.D.Y.W.D.W.D.[C1CCN([*:1])C1]}$PEPTIDE1,PEPTIDE1,1:R1-11:R3$$$V2.0)	IC50 [1, 5]: 0.3 µM
	5.8	CC[C@H](C)[C@@H]1NC(=O)[C@H](CCCCN)NC(=O)[C@H](Cc2ccc(O)cc2)NC(=O)[C@H](Cc2ccccc2)NC(=O)[C@H](C(C)C)NC(=O)[C@H](C)N(C)C(=O)C[C@@H](C(=O)N2CCCC2)NC(=O)[C@H](Cc2c[nH]c3ccccc23)NC(=O)[C@H](CC(N)=O)NC(=O)[C@H](Cc2ccc(O)cc2)NC(=O)[C@H](Cc2c[nH]c3ccccc23)NC1=O [PP19] (HELM PEPTIDE1{[meA].V.F.Y.K.I.W.Y.N.W.D.[C1CCN([*:1])C1]}$PEPTIDE1,PEPTIDE1,1:R1-11:R3$$$V2.0)	IC50 [1, 5]: 4.6 µM
	> 62.1	CC[C@H](C)[C@@H]1NC(=O)[C@H](CC(N)=O)NC(=O)[C@H](Cc2ccc(O)cc2)NC(=O)[C@H](Cc2c[nH]c3ccccc23)NC(=O)[C@H](CO)NC(=O)[C@H](CC(N)=O)NC(=O)[C@H](CO)NC(=O)[C@H](Cc2ccccc2)NC(=O)[C@H](CC(N)=O)NC(=O)[C@H](C)N(C)C(=O)C[C@@H](C(=O)N2CCCC2)NC(=O)[C@H](Cc2c[nH]c3ccccc23)NC1=O [PP16] (HELM PEPTIDE1{[meA].N.F.S.N.S.W.Y.N.I.W.D.[C1CCN([*:1])C1]}$PEPTIDE1,PEPTIDE1,1:R1-12:R3$$$V2.0)	
		CC[C@H](C)[C@@H]1NC(=O)[C@H](CCCCN)NC(=O)[C@H](Cc2ccc(O)cc2)NC(=O)[C@H](Cc2c[nH]c3ccccc23)NC(=O)[C@H](CO)NC(=O)[C@H](CO)NC(=O)[C@H]([C@@H](C)O)NC(=O)[C@@H]2CCCN2C(=O)[C@@H](C)N(C)C(=O)C[C@@H](C(=O)N2CCCC2)NC(=O)[C@H](Cc2c[nH]c3ccccc23)NC1=O [PP23] (HELM PEPTIDE1{[C[C@H](C(=O)[*:2])N(C)[*:1]].P.T.S.S.W.Y.K.I.W.D.[C1CCN([*:1])C1]}$PEPTIDE1,PEPTIDE1,1:R1-11:R3$$$V2.0)	IC50 [3]: > 62.1 µM

Compound	IC50 [1, 4] [µM]	IC50 [2] [µM]	other results
CC[C@H](C)[C@@H]1NC(=O)[C@H](Cc2ccc(O)cc2)NC(=O)[C@H](C)N(C)C(=O)C[C@@H](C(=O)N2CCCC2)NC(=O)[C@H](CC(C)C)NC(=O)[C@H](CC(=O)O)NC(=O)CNC(=O)[C@H](Cc2ccccc2)NC(=O)[C@H](Cc2ccccc2)NC(=O)[C@H](CC(=O)O)NC(=O)[C@H](Cc2c[nH]c3ccccc23)NC1=O [PP4] (HELM PEPTIDE1{[meA].Y.I.W.D.F.F.G.D.L.D.[C1CCN([*:1])C1]}$PEPTIDE1,PEPTIDE1,1:R1-11:R3$$$V2.0)	44.9		

From patent US20250018014A1, “METHOD FOR TREATING AND/OR PREVENTING REGNASE-1-RELATED DISEASE” (OSAKA UNIVERSITY, priority 2018, published 2025)
